Here are results for 7 molecules from patent publication EP4671245A1, “HETEROAROMATIC RING COMPOUND SERVING AS CDK7 KINASE INHIBITOR, PREPARATION THEREOF, AND USE THEREOF” (Jiangsu Chia Tai Fenghai Pharmaceutical Co., Ltd., priority 2023, dated 2024).

For one data set, the target named is CDK7/CycH/MAT1 (Homo sapiens, UniProt P50613). Put plainly: Inhibition of CDK7/CycH/MAT1 kinase activity (ADP-Glo). As to conditions: IC50, ATP 30 µM, substrate 0.1 µM, 60 minutes at 25°C. In kind it is biochemical. The procedure: The CDK7/CycH/MAT1 protein was thawed on ice, and the remaining reagents were equilibrated to room temperature. The CDK7/CycH/MAT1 protein and ATP/substrate were diluted to the corresponding concentrations using enzyme reaction buffer (50 mM Hepes, 10 mM MgCl2, 0.01% Brij35, 1 mM EGTA, 2 mM DTT). The test compounds were added to a 384-well white low-volume enzyme assay plate at 20 nL per well, followed by the addition of the prepared CDK7/CycH/MAT1 protein (2 µL/well), mixed well, and incubated at 25°C for 10 minutes. The reaction was initiated by adding ATP/substrate and allowed to proceed at 25°C for 60 minutes. The final concentrations of each component in the enzyme reaction system were as follows: CDK7/CycH/MAT1 protein, 3.5 ng/µL; ATP, 30 µM; substrate, 0.1 µM. The concentrations of the test compounds ranged from high to low as follows: 5000, 1667, 556, 185, 62, 21, 7, 2, 1, and 0.3 nM. After completion of the enzymatic reaction, 4 µL of ADP-Glo Reagent was added to each well and incubated at 25°C for 40 minutes. Subsequently, 8 µL of Kinase Detection Reagent was added to each well and incubated at25°C for another 40 minutes. Chemiluminescence signals were recorded using a microplate reader, and the data were used to generate dose-response curves and calculate IC50 values.
Chain of CDK7/CycH/MAT1 (P50613 whole entry, species assumed): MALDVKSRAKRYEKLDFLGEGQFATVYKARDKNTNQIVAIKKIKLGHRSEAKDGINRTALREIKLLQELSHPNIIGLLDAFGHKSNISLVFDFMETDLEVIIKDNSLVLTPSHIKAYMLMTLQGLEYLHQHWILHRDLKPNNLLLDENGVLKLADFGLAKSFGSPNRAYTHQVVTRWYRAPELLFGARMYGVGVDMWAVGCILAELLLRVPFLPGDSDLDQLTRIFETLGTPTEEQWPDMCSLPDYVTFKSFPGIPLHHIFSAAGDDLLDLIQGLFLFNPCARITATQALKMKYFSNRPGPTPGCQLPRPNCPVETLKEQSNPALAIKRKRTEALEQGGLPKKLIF
Chain of CDK7/CycH/MAT1 (P51946 whole entry partner, species assumed): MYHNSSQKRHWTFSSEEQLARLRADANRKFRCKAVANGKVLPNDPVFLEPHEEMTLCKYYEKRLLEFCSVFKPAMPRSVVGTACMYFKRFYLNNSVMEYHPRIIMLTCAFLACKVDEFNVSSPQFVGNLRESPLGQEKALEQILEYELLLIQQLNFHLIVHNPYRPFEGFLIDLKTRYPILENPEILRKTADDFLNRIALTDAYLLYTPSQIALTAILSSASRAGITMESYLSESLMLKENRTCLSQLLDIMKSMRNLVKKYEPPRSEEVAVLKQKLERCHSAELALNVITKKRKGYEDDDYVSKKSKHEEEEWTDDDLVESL
Chain of CDK7/CycH/MAT1 (P51948 whole entry partner, species assumed): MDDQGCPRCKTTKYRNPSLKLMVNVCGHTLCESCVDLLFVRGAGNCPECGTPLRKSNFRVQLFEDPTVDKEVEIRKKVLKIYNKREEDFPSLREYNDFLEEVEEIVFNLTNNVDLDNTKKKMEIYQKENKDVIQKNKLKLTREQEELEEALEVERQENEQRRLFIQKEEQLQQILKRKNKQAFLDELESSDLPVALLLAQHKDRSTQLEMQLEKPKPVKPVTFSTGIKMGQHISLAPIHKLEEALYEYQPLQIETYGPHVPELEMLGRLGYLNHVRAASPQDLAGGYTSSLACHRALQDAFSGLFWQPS
Background: ADP-Glo turns the ADP formed in a reaction into a luminescent signal.

For another data set, the system named is MDA-MB-468. Put plainly: Anti-proliferative activity on tumor cells (Cell Titer-Glo), MDA-MB-468. In kind it is cell-based. As to conditions: MDA-MB-468, 7 days, 100% air. The procedure: (§1) Tumor cell lines including HCT-116, MDA-MB-468, Jurkat, HCC70, and MDA-MB-436 were cultured in their respective growth media. Cells were seeded into 384-well plates at densities of 600, 300, 800, 800, and 1000 cells/well (in 18 µL/well), respectively, and incubated overnight at 37°C under 5% CO2 (MDA-MB-468 cells were incubated overnight at 37°C under 100% air). Test sample stock solutions were prepared in DMSO at 10 mM and serially diluted 1:3 across 10 concentrations in 1% DMSO to prepare 10X intermediate dilution plates. Then, 2 µL/well of the 1oX intermediate dilution was added to the cell plates to achieve the final assay concentrations: 10000, 3333, 1111, 370, 123, 41, 14, 4.6, and 1.5 nM. HCT-116, Jurkat, and HCC70 cell plates were incubated for 3, 7, and 7 days at 37°C with 5% CO2, respectively (MDA-MB-468 cell plates were incubated for 7 days at 37°C with 100% air). After treatment, Cell Titer-Glo reagent was removed from -20°C storage and equilibrated to room temperature. Then, 20 µL/well of Cell Titer-Glo reagent was added to each well and incubated for 10 minutes. After the 10-minute incubation, luminescence was measured using a microplate reader. Data were analyzed using Excel and the IC50 values were calculated using GraphPad Prism 7.0 software.
(In ATP-based viability assays light output follows the ATP content of the culture.)

Data set [1] can be described thus: Pharmacokinetic study in ICR mice (oral gavage and intravenous, plasma LC-MS/MS). In kind it is in vivo. As to conditions: for Vd / AUC(0-t) / Cmax / MRT last / clearance / half-life / AUC(0-inf) / Tmax / bioavailability / concentration at 8 h: mouse, plasma; for Vd: iv, 10 mg/kg; for AUC(0-inf): read-out: AUCINF_obs; for bioavailability: read-out: Bioavailability (F); for concentration at 8 h: read-out: Clast. The procedure:
Each group consisted of 12 animals. The dosing vehicle was 10% DMSO + 10% polyoxyethylene castor oil + 80% physiological saline solution. The oral gavage group was fasted for approximately 12 hours prior to dosing and allowed food 4 hours after administration. Water was not restricted during the experiment. Approximately 0.2 mL of blood was collected from the orbital sinus at the following time points: pre-dose and 5, 15, 30 minutes, 1, 2, 4, 6, 8, and 24 hours post-dose. Blood was collected into EP tubes containing EDTA-K2 as anticoagulant and placed on ice. Plasma was separated by centrifugation at 3500 rpm for 5 minutes at 4°C within 1 hour of blood collection. Plasma samples were stored at -20°C until analysis. […] Pharmacokinetic parameters were calculated using WinNonlin software.

For the next data set, the system named is HCT-116. Put plainly: Anti-proliferative activity on tumor cells (Cell Titer-Glo), HCT-116. As to conditions: HCT-116, 3 days. In kind it is cell-based. On the procedure: as §1
In a further data set the test system is Jurkat. The experiment in a line: Anti-proliferative activity on tumor cells (Cell Titer-Glo), Jurkat. In kind it is cell-based. As to conditions: 7 days. On the procedure:
as §1

The test system of another data set is HCC70. The experiment in a line: Anti-proliferative activity on tumor cells (Cell Titer-Glo), HCC70. In kind it is cell-based. As to conditions: HCC70, 7 days. On the procedure: as §1
[2] abbreviates: male ICR mice, iv. 10mg/kg, read-out: Vss.
The mark [3] stands for this setting: male ICR mice, iv. 10mg/kg, read-out: Vz.

The structures appear in SMILES notation. Read-outs that look alike come from different tables or passages of the source.

In general, IC50 refers to the concentration that inhibits the measured activity by half. Higher therefore signals a need for much substance. By IC30 is commonly meant the concentration needed for an effect of 30%. Broadly, the AUC(0-t) is exposure summed from dosing to a finite time, without extrapolation to infinity. By Cmax is commonly meant the highest concentration seen after dosing. By MRT last is commonly meant a mean duration of stay, worked out from the concentration-time curve. A word on the half-life: it is the time needed for the level to fall by half in the phase considered. Read a low half-life as rapid decline. For orientation: Tmax means the time at which the peak concentration occurs. A word on the bioavailability: it is dose-corrected exposure relative to a reference, in per cent.

The molecule `C#CCNc1cc(NC[C@H]2CCNC[C@@H]2O)nc2c(C(C)C)cnn12` [Compound 33] had an IC50 against CDK7/CycH/MAT1 of 2.7 nM. The molecule also came in with an IC30 in the data set on MDA-MB-468 of 1101 nM. In data set [1] (male ICR mice, iv. 10mg/kg), the Clast was 6 ng/mL, the T1/2 result was “longer half-life”, the Tlast is reported as 24 H and the Vss entry is reported as “higher steady-state apparent volume of distribution”. In addition, in data set [1] (male ICR mice, iv. 10mg/kg), the AUC(0-t) was 1510 ng·h/mL, the Cmax came out at 990 ng/mL, the MRT last was 2.4 h and the clearance was 104 mL/min/kg. For the same molecule, in data set [1] (male ICR mice, iv. 10mg/kg), the half-life was 10 h and the AUC(0-inf) was determined as 1600 ng·h/mL. In data set [1] (male ICR mice, po. 10mg/kg), this molecule had a Clast of 5 ng/mL, a Tlast of 6 h, an AUC(0-t) of 65 ng·h/mL and a Cmax of 26 ng/mL. In addition, in data set [1] (male ICR mice, po. 10mg/kg), the MRT last turned out to be 2.4 h, the Tmax stood at 0.5 h, the half-life is 2.9 h and the AUC(0-inf) was found to be 88 ng·h/mL. Also, in data set [1] (male ICR mice, po. 10mg/kg), the bioavailability is 5.5%. The Vd in data set [1] (setting [2]) turned out to be 27.8 L/kg. Moreover, the Vd in data set [1] (setting [3]) was 90 L/kg. Further, in the data set with HCT-116, the IC30 is on record as 788.3 nM. In addition, the IC30 in the data set with Jurkat is given as 200.8 nM. Besides, in the data set on HCC70, the IC30 was found to be 501.9 nM.
`N#Cc1cnn2c(NCc3ccccc3)cc(NC[C@H]3CCNC[C@@H]3O)nc12` [Compound 22] yielded an IC50 on CDK7/CycH/MAT1 of 4.31 nM. Besides, the IC30 amounted to 2910.0 nM in the data set on MDA-MB-468, 3453.0 nM with HCT-116 and 4087.0 nM in the data set with Jurkat.
The molecule `CC(C)c1cnn2c(NCC3CC3)cc(NC[C@H]3CCNC[C@@H]3O)nc12` [Compound 45] yielded an IC50 on CDK7/CycH/MAT1 of 21.2 nM. Moreover, the IC30 in the data set on MDA-MB-468 is on record as 851.8 nM; in the data set with HCT-116, 429.4 nM; with Jurkat, 1126 nM; in the data set with HCC70, 596.4 nM.
For `[2H]C([2H])(Nc1cc(NC[C@H]2CCNC[C@@H]2O)nc2c(C(C)C)cnn12)c1ccccc1` [Compound 8], the IC30 in the data set on MDA-MB-468 is listed as 350.4 nM; with HCT-116 it was 231.7 nM; in the data set on Jurkat it was 329.4 nM.
Turning to `CC(C)c1cnn2c(NCc3ccccc3)cc(NC[C@H]3CCNC[C@@H]3O)nc12` [CT7001, reference compound], in the data set with MDA-MB-468, the IC30 is listed as 602.2 nM. Also, in data set [1] (male ICR mice, iv. 10mg/kg), the Tlast turned out to be 8 H, the AUC(0-t) is 8120 ng·h/mL, the Cmax was found to be 17400 ng/mL and the MRT last came out at 1.3 h. Moreover, in data set [1] (male ICR mice, iv. 10mg/kg), the clearance amounted to 20 mL/min/kg, the half-life was 1.5 h, the AUC(0-inf) turned out to be 8400 ng·h/mL and the concentration at 8 h stood at 126 ng/mL. In data set [1] (male ICR mice, po. 10mg/kg), this molecule registered a Tlast of 8 h, a Vz of 55.15 L/kg, an AUC(0-t) of 541 ng·h/mL and a Cmax of 99 ng/mL. For the same molecule, in data set [1] (male ICR mice, po. 10mg/kg), the MRT last was determined as 3.6 h, the Tmax was determined as 2 h, the half-life was 2.5 h and the AUC(0-inf) stood at 653 ng·h/mL. Besides, in data set [1] (male ICR mice, po. 10mg/kg), the bioavailability came out at 7.8% and the concentration at 8 h stood at 31 ng/mL. In addition, the Vd in data set [1] (male, ICR, iv. 10mg/kg, read-out: Vss) was determined as 1.91 L/kg. Further, in data set [1] (male, ICR, iv. 10mg/kg, read-out: Vz), the Vd came to 2.62 L/kg. This molecule also yielded an IC30 with HCT-116 of 463.7 nM. Further, the IC30 in the data set on Jurkat is given as 473.3 nM. Moreover, in the data set with HCC70, the IC30 was 518.9 nM.
On CDK7/CycH/MAT1, `C=CCNc1cc(NC[C@H]2CCNC[C@@H]2O)nc2c(C(C)C)cnn12` [Compound 41] yielded an IC50 of 6.3 nM. Besides, in data set [1] (male ICR mice, iv. 10mg/kg), the Clast came to 19 ng/mL, the Tlast is given as 8 H, the Vss result is “higher steady-state apparent volume of distribution” and the AUC(0-t) turned out to be 2960 ng·h/mL. In data set [1] (male ICR mice, iv. 10mg/kg), this molecule gave a Cmax of 4360 ng/mL, an MRT last of 1.1 h, a clearance of 55 mL/min/kg and a half-life of 2.3 h. In addition, the AUC(0-inf) in data set [1] (male ICR mice, iv. 10mg/kg) is 3020 ng·h/mL. Further, in data set [1] (male ICR mice, po. 10mg/kg), the “Bioavailability (F)” value is on record as “better oral bioavailability”, the Clast worked out at 8 ng/mL, the Tlast was determined as 8 h and the AUC(0-t) turned out to be 445 ng·h/mL. In addition, in data set [1] (male ICR mice, po. 10mg/kg), the concentration peaked (Cmax) at 150 ng/mL, the MRT last was determined as 2.5 h, the Tmax is 2 h and the half-life is 1.5 h. For the same molecule, in data set [1] (male ICR mice, po. 10mg/kg), the AUC(0-inf) worked out at 462 ng·h/mL and the bioavailability came to 15%. The Vd in data set [1] (setting [2]) amounted to 4.22 L/kg. In addition, in data set [1] (setting [3]), the Vd was 10.9 L/kg.
`CC#CCNc1cc(NC[C@H]2CCNC[C@@H]2O)nc2c(C(C)C)cnn12` [Compound 38] returned an IC50 against CDK7/CycH/MAT1 of 18.9 nM. The IC30 came out at 765.9 nM in the data set with MDA-MB-468, 391.3 nM with HCT-116, 858.8 nM in the data set on Jurkat and 968.8 nM in the data set with HCC70.
